Results on 24 compounds are retold here after patent US9527838B2, “2-pyridinecarboxamide derivatives, compositions containing such compounds, and methods of treatment” (priority 2012, dated 2016).

The assay concerns the target Recombinant human liver glucokinase (Homo sapiens (Human), UniProt P35557). Briefly: Glucokinase activation assay (G6PDH-coupled, Thio-NADH absorbance at 405 nm). Format: biochemical. The note with it: for EC50: 2.5 mM Glu, 30° C. From the text: The glucokinase activity can, for instance, be determined without directly measuring glucose-6-phosphate by measuring the amount of Thio-NADH generated during the production of phosphogluconolactone from glucose-6-phosphate by a reporter enzyme glucose-6-phosphate dehydrogenase.
To test the exemplified compounds, the following assay was employed. Recombinant human liver glucokinase was expressed as a FLAG fusion protein in E. coli, and purified on […] M2 AFFINITY GEL (Sigma). The assay was carried out at 30° C. in a 96-well plate. In the plate was distributed 69 μl each of assay buffer (25 mM Hepes Buffer: pH=7.2, 2 mM MgCl2, 1 mM ATP, 0.5 mM TNAD, 1 mM dithiothreitol), to which was added 1 μl of a DMSO solution of the compound or DMSO as control. Then, 20 μl of pre-ice-cooled enzyme mixture (FLAG-GK, 20 U/ml G6PDH) was distributed thereto, to which was added 10 μl of 25 mM glucose as substrate to initiate the reaction (final glucose concentration=2.5 mM). After starting the reaction, the absorbance at 405 nm was measured every 30 seconds for 10 minutes to evaluate the compound based on the initial increase for 5 minutes. FLAG-GK was added so that the increase of absorbance after 5 minutes fell between 0.05 to 0.1 in the presence of 1% DMSO.
The OD values of the respective compounds were measured in the respective concentrations, wherein the OD value of DMSO as control is regarded as 100%.

What is called Emax is the maximal effect, on the per cent scale that the assay sets. By EC50 is commonly meant the concentration giving half of the maximal effect.

Recombinant human liver glucokinase, sequence (P35557 other isoform, or with tags, fused parts or gaps): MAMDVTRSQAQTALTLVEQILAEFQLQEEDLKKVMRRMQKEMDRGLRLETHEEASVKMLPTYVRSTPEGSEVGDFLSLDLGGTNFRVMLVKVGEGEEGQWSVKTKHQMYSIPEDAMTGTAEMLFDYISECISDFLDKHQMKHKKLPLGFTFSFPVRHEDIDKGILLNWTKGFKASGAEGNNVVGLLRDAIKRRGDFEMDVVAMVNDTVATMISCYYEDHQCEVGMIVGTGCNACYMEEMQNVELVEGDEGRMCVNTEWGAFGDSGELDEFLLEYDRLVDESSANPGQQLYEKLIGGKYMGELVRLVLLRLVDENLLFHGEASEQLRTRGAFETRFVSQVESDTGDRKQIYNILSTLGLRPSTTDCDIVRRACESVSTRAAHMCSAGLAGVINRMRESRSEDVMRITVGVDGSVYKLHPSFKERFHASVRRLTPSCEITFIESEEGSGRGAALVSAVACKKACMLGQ

Consider `CCOC(=O)Cc1nc(NC(=O)c2nc(Sc3ccc(F)cc3)ccc2Sc2ccc(F)cc2)sc1Cl` [Example 29, Ethyl {2-[({3,6-bis[(4-fluorophenyl)sulfanyl]pyridin-2-yl}carbonyl)amino]-5-chloro-1,3-thiazol-4-yl}acetate], for which the Emax stood at 158%.

Regarding `O=C(O)Cc1nc(NC(=O)c2nc(Sc3ccc(F)cc3)ccc2Sc2ccc(F)cc2)sc1Cl` [Example 30, {2-[({3,6-Bis[(4-fluorophenyl)sulfanyl]pyridin-2-yl}carbonyl)amino]-5-chloro-1,3-thiazol-4-yl}acetic acid], the Emax was determined as 393% and the concentration for a half-maximal effect (EC50) is 16.3 nM.

`CCOC(=O)Cc1nc(NC(=O)c2nc(Sc3ccccn3)ccc2Sc2ccc(F)cc2)sc1Cl` [Example 31, Ethyl {5-chloro-2-[({3-[(4-fluorophenyl)sulfanyl]-6-(pyridin-2-ylsulfanyl)pyridin-2-yl}carbonyl)amino]-1,3-thiazol-4-yl}acetate]: the maximal response (Emax) turned out to be 436% and the half-maximal effective concentration (EC50) turned out to be 127 nM.

With `O=C(O)Cc1nc(NC(=O)c2nc(Sc3ccccn3)ccc2Sc2ccc(F)cc2)sc1Cl` [Example 32, {5-Chloro-2-[({3-[(4-fluorophenyl)sulfanyl]-6-(pyridin-2-ylsulfanyl)pyridin-2-yl}carbonyl)amino]-1,3-thiazol-4-yl}acetic acid], the maximal effect (Emax) was determined as 643% and the EC50 came out at 16.1 nM.

Regarding `CCOC(=O)Cc1csc(NC(=O)c2nc(Sc3ccccn3)ccc2Sc2ccc(F)cc2)n1` [Example 33, Ethyl {2-[({3-[(4-fluorophenyl)sulfanyl]-6-(pyridin-2-ylsulfanyl)pyridin-2-yl}carbonyl)amino]-1,3-thiazol-4-yl}acetate], the maximal effect (Emax) is 456% and the EC50 is 4660 nM.

As for `O=C(O)Cc1csc(NC(=O)c2nc(Sc3ccccn3)ccc2Sc2ccc(F)cc2)n1` [Example 34, {2-[({3-[(4-Fluorophenyl)sulfanyl]-6-(pyridin-2-ylsulfanyl)pyridin-2-yl}carbonyl)amino]-1,3-thiazol-4-yl}acetic acid], the maximal response (Emax) turned out to be 762% and the EC50 stood at 413 nM.

In the case of `CCOC(=O)CSc1cnc(NC(=O)c2nc(Sc3ccccn3)ccc2Sc2ccc(F)cc2)s1` [Example 35, Ethyl ({2-[({3-[(4-fluorophenyl)sulfanyl]-6-(pyridin-2-ylsulfanyl)pyridin-2-yl}carbonyl)amino]-1,3-thiazol-5-yl}sulfanyl)acetate], the Emax came out at 504% and the EC50 amounted to 83.8 nM.

With `O=C(O)CSc1cnc(NC(=O)c2nc(Sc3ccccn3)ccc2Sc2ccc(F)cc2)s1` [Example 36, ({2-[({3-[(4-Fluorophenyl)sulfanyl]-6-(pyridin-2-ylsulfanyl)pyridin-2-yl}carbonyl)amino]-1,3-thiazol-5-yl}sulfanyl)acetic acid], the maximal effect (Emax) amounted to 514% and the EC50 amounted to 34 nM.

For the compound `CCOC(=O)C(C)(C)CSc1cnc(NC(=O)c2nc(Sc3ccccn3)ccc2Sc2ccc(F)cc2)s1` [Example 37, Ethyl 3-({2-[({3-[(4-fluorophenyl)sulfanyl]-6-(pyridin-2-ylsulfanyl)pyridin-2-yl}carbonyl)amino]-1,3-thiazol-5-yl}sulfanyl)-2,2-dimethylpropanoate], the maximum response (Emax) stood at 450% and the EC50 amounted to 129 nM.

As for `CC(C)(CSc1cnc(NC(=O)c2nc(Sc3ccccn3)ccc2Sc2ccc(F)cc2)s1)C(=O)O` [Example 38, 3-({2-[({3-[(4-Fluorophenyl)sulfanyl]-6-(pyridin-2-ylsulfanyl)pyridin-2-yl}carbonyl)amino]-1,3-thiazol-5-yl}sulfanyl)-2,2-dimethylpropanoic acid], the Emax worked out at 550% and the EC50 turned out to be 32 nM.

Turning to `COC(=O)CCc1cnc(NC(=O)c2nc(Sc3ccccn3)ccc2Sc2ccc(F)cc2)s1` [Example 39, Methyl 3-{2-[({3-[(4-fluorophenyl)sulfanyl]-6-(pyridin-2-ylsulfanyl)pyridin-2-yl}carbonyl)amino]-1,3-thiazol-5-yl}propanoate], the Emax turned out to be 468% and the EC50 came to 726 nM.

Regarding `O=C(O)CCc1cnc(NC(=O)c2nc(Sc3ccccn3)ccc2Sc2ccc(F)cc2)s1` [Example 40, 3-{2[({3-[(4-Fluorophenyl)sulfanyl]-6-(pyridin-2-ylsulfanyl)pyridin-2-yl}carbonyl)amino]-1,3-thiazol-5-yl}propanoic acid], the Emax came to 658% and the EC50 was 428 nM.

In the case of `CCOC(=O)Cc1nc(NC(=O)c2nc(Sc3nncn3C)ccc2Sc2ccc(C(F)(F)F)cc2)sc1Cl` [Example 41, Ethyl (5-chloro-2-{[(6-[(4-methyl-4H-1,2,4-triazol-3-yl)sulfanyl]-3-{[4-(trifluoromethyl)phenyl]sulfanyl}pyridin-2-yl)carbonyl]amino}-1,3-thiazol-4-yl)acetate], the maximum response (Emax) amounted to 296% and the EC50 came to 18.9 nM.

Turning to `Cn1cnnc1Sc1ccc(Sc2ccc(C(F)(F)F)cc2)c(C(=O)Nc2nc(CC(=O)O)c(Cl)s2)n1` [Example 42, (5-Chloro-2-{[(6-[(4-methyl-4H-1,2,4-triazol-3-yl)sulfanyl]-3-{[4-(trifluoromethyl)phenyl]sulfanyl}pyridin-2-yl)carbonyl]amino}-1,3-thiazol-4-yl)acetic acid], the Emax came to 466% and the concentration for a half-maximal effect (EC50) is 44 nM.

For the compound `CCOC(=O)CSc1cnc(NC(=O)c2nc(Sc3nncn3C)ccc2Sc2ccc(C(F)(F)F)cc2)s1` [Example 43, Ethyl [(2-{[(6-[(4-methyl-4H-1,2,4-triazol-3-yl)sulfanyl]-3-{[4-(trifluoromethyl)phenyl]sulfanyl}pyridin-2-yl)carbonyl]amino}-1,3-thiazol-5-yl)sulfanyl]acetate], the maximum response (Emax) came out at 384% and the EC50 came to 28.3 nM.

With `Cn1cnnc1Sc1ccc(Sc2ccc(C(F)(F)F)cc2)c(C(=O)Nc2ncc(SCC(=O)O)s2)n1` [Example 44, [(2-{[(6-[(4-Methyl-4H-1,2,4-triazol-3-yl)sulfanyl]-3-{[4-(trifluoromethyl)phenyl]sulfanyl}pyridin-2-yl)carbonyl]amino}-1,3-thiazol-5-yl)sulfanyl]acetic acid], the maximum response (Emax) amounted to 349% and the EC50 is 33.7 nM.

Consider `CCOP(=O)(Cc1cnc(NC(=O)c2nc(Sc3nncn3C)ccc2Sc2ccc(C(F)(F)F)cc2)s1)OCC` [Example 45, Diethyl [(2-{[(6-[(4-methyl-4H-1,2,4-triazol-3-yl)sulfanyl]-3-{[4-(trifluoromethyl)phenyl]sulfanyl}pyridin-2-yl)carbonyl]amino}-1,3-thiazol-5-yl)methyl]phosphonate], for which the Emax stood at 273% and the EC50 came to 350 nM.

For `CCOC(=O)Cc1csc(NC(=O)c2nc(Sc3nncn3C)ccc2Sc2ccc(C(F)(F)F)cc2)n1` [Example 46, Ethyl (2-{[(6-[(4-methyl-4H-1,2,4-triazol-3-yl)sulfanyl]-3-{[4-(trifluoromethyl)phenyl]sulfanyl}pyridin-2-yl)carbonyl]amino}-1,3-thiazol-4-yl)acetate], the maximal effect (Emax) was 466% and the EC50 is 66.3 nM.

With `Cn1cnnc1Sc1ccc(Sc2ccc(C(F)(F)F)cc2)c(C(=O)Nc2nc(CC(=O)O)cs2)n1` [Example 47, (2-{[(6-[(4-Methyl-4H-1,2,4-triazol-3-yl)sulfanyl]-3-{[4-(trifluoromethyl)phenyl]sulfanyl}pyridin-2-yl)carbonyl]amino}-1,3-thiazol-4-yl)acetic acid], the maximal effect (Emax) was 633% and the concentration for a half-maximal effect (EC50) turned out to be 222 nM.

With `COC(=O)CCc1cnc(NC(=O)c2nc(Sc3nncn3C)ccc2Sc2ccc(C(F)(F)F)cc2)s1` [Example 48, Methyl 3-(2-{[(6-[(4-methyl-4H-1,2,4-triazol-3-yl)sulfanyl]-3-{[4-(trifluoromethyl)phenyl]sulfanyl}pyridin-2-yl)carbonyl]amino}-1,3-thiazol-5-yl)propanoate], the Emax amounted to 428% and the 50% effective concentration (EC50) amounted to 71.8 nM.

On to `Cn1cnnc1Sc1ccc(Sc2ccc(C(F)(F)F)cc2)c(C(=O)Nc2ncc(CCC(=O)O)s2)n1` [Example 49, 3-(2-{[(6-[(4-Methyl-4H-1,2,4-triazol-3-yl)sulfanyl]-3-{[4-(trifluoromethyl)phenyl]sulfanyl}pyridin-2-yl)carbonyl]amino}-1,3-thiazol-5-yl)propanoic acid], for which the Emax turned out to be 549% and the EC50 was determined as 173 nM.

On to `CCOP(=O)(Cc1cnc(NC(=O)c2nc(Sc3nncn3C)ccc2Sc2ccc(Cl)c(Cl)c2)s1)OCC` [Example 50], for which the Emax worked out at 379% and the EC50 was 57.1 nM.

Take `CCOC(=O)CSc1cnc(NC(=O)c2nc(Sc3nncn3C)ccc2Sc2ccc(Cl)c(Cl)c2)s1` [Example 51, Ethyl ({2-[({3-[(3,4-dichlorophenyl)sulfanyl]-6-[(4-methyl-4H-1,2,4-triazol-3-yl)sulfanyl]pyridin-2-yl}carbonyl)amino]-1,3-thiazol-5-yl}sulfanyl)acetate]: the Emax is 479% and the half-maximal effective concentration (EC50) stood at 6.2 nM.

In the case of `Cn1cnnc1Sc1ccc(Sc2ccc(Cl)c(Cl)c2)c(C(=O)Nc2ncc(SCC(=O)O)s2)n1` [Example 52, ({2-[({3-[(3,4-Dichlorophenyl)sulfanyl]-6-[(4-methyl-4H-1,2,4-triazol-3-yl)sulfanyl]pyridin-2-yl}carbonyl)amino]-1,3-thiazol-5-yl}sulfanyl)acetic acid], the maximum response (Emax) amounted to 431% and the EC50 is 16.6 nM.
